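48-hour exposure; five concentrations; linearly interpolated endpoints. GI50 is the concentration that inhibits growth by half. TGI is the concentration that stops growth completely.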
Experiments:
Test in all cases: NCI-60 cell line screen, 48 h
K-562 leukemia = tested on: K-562 leukemia
SK-OV-3 ovarian = tested on: SK-OV-3 ovarian
HCT-116 colon = tested on: HCT-116 colon
SF-539 CNS = tested on: SF-539 CNS
TK-10 renal = tested on: TK-10 renal
RXF 393 renal = tested on: RXF 393 renal
NCI/ADR-RES ovarian = tested on: NCI/ADR-RES ovarian
OVCAR-3 ovarian = tested on: OVCAR-3 ovarian
OVCAR-8 ovarian = tested on: OVCAR-8 ovarian
CCRF-CEM leukemia = tested on: CCRF-CEM leukemia
NCI-H522 lung = tested on: NCI-H522 lung
MDA-MB-468 breast = tested on: MDA-MB-468 breast
SK-MEL-28 melanoma = tested on: SK-MEL-28 melanoma
BT-549 breast = tested on: BT-549 breast
IGROV1 ovarian = tested on: IGROV1 ovarian
SNB-19 CNS = tested on: SNB-19 CNS
MCF7 breast = tested on: MCF7 breast
HCC-2998 colon = tested on: HCC-2998 colon
UACC-62 melanoma = tested on: UACC-62 melanoma
COLO 205 colon = tested on: COLO 205 colon
MALME-3M melanoma = tested on: MALME-3M melanoma
U251 CNS = tested on: U251 CNS
UACC-257 melanoma = tested on: UACC-257 melanoma
HT29 colon = tested on: HT29 colon
SF-295 CNS = tested on: SF-295 CNS
T-47D breast = tested on: T-47D breast
EKVX NSCLC = tested on: EKVX NSCLC
NCI-H226 lung = tested on: NCI-H226 lung
SK-MEL-5 melanoma = tested on: SK-MEL-5 melanoma
786-0 renal = tested on: 786-0 renal
SK-MEL-2 melanoma = tested on: SK-MEL-2 melanoma
OVCAR-5 ovarian = tested on: OVCAR-5 ovarian
HCT-15 colon = tested on: HCT-15 colon
HL-60(TB) leukemia = tested on: HL-60(TB) leukemia
DU-145 prostate = tested on: DU-145 prostate
OVCAR-4 ovarian = tested on: OVCAR-4 ovarian
MOLT-4 leukemia = tested on: MOLT-4 leukemia
A498 renal = tested on: A498 renal
MDA-MB-435 = tested on: MDA-MB-435
M14 melanoma = tested on: M14 melanoma
NCI-H23 lung = tested on: NCI-H23 lung
UO-31 renal = tested on: UO-31 renal
HOP-62 NSCLC = tested on: HOP-62 NSCLC
RPMI-8226 leukemia = tested on: RPMI-8226 leukemia
SF-268 CNS = tested on: SF-268 CNS
SW-620 colon = tested on: SW-620 colon
HOP-92 NSCLC = tested on: HOP-92 NSCLC
CAKI-1 renal = tested on: CAKI-1 renal
NCI-H460 lung = tested on: NCI-H460 lung
HS 578T breast = tested on: HS 578T breast
A549 NSCLC = tested on: A549 NSCLC
ACHN renal = tested on: ACHN renal
PC-3 prostate = tested on: PC-3 prostate
SN12C renal = tested on: SN12C renal
KM12 colon = tested on: KM12 colon
MDA-MB-231 breast = tested on: MDA-MB-231 breast
SNB-75 CNS = tested on: SNB-75 CNS
LOX IMVI melanoma = tested on: LOX IMVI melanoma

Structure (SMILES): O=C(N=Nc1c(O)[nH]c2ccc(Br)cc12)c1ccc2nc(-c3ccccc3)[nH]c2c1
- GI50 (K-562 leukemia): 1.29 µM
- TGI (K-562 leukemia): 6.99 µM
- GI50 (SK-OV-3 ovarian): 1.97 µM
- TGI (SK-OV-3 ovarian): 4.29 µM
- GI50 (HCT-116 colon): 3.24 µM
- TGI (HCT-116 colon): 12.8 µM
- GI50 (SF-539 CNS): 1.77 µM
- TGI (SF-539 CNS): 3.43 µM
- GI50 (TK-10 renal): 3.61 µM
- TGI (TK-10 renal): 70.1 µM
- GI50 (RXF 393 renal): 2.57 µM
- TGI (RXF 393 renal): 6.6 µM
- GI50 (NCI/ADR-RES ovarian): > 100 µM
- TGI (NCI/ADR-RES ovarian): > 100 µM
- GI50 (OVCAR-3 ovarian): 2.14 µM
- TGI (OVCAR-3 ovarian): 4.26 µM
- GI50 (OVCAR-8 ovarian): 1.53 µM
- TGI (OVCAR-8 ovarian): 3.76 µM
- GI50 (CCRF-CEM leukemia): 3.18 µM
- TGI (CCRF-CEM leukemia): > 100 µM
- GI50 (NCI-H522 lung): 1.38 µM
- TGI (NCI-H522 lung): 3.1 µM
- GI50 (MDA-MB-468 breast): 1.61 µM
- TGI (MDA-MB-468 breast): 3.06 µM
- GI50 (SK-MEL-28 melanoma): 1.79 µM
- TGI (SK-MEL-28 melanoma): 3.42 µM
- GI50 (BT-549 breast): 3.55 µM
- TGI (BT-549 breast): 26.5 µM
- GI50 (IGROV1 ovarian): 3.03 µM
- TGI (IGROV1 ovarian): 13.2 µM
- GI50 (SNB-19 CNS): 1.79 µM
- TGI (SNB-19 CNS): 4.35 µM
- GI50 (MCF7 breast): 1.7 µM
- TGI (MCF7 breast): 5.09 µM
- GI50 (HCC-2998 colon): 1.48 µM
- TGI (HCC-2998 colon): 3.11 µM
- GI50 (UACC-62 melanoma): 1.75 µM
- TGI (UACC-62 melanoma): 3.37 µM
- GI50 (COLO 205 colon): 2.53 µM
- TGI (COLO 205 colon): 6.95 µM
- GI50 (MALME-3M melanoma): 1.62 µM
- TGI (MALME-3M melanoma): 3.35 µM
- GI50 (U251 CNS): 0.418 µM
- TGI (U251 CNS): 1.59 µM
- GI50 (UACC-257 melanoma): 3.27 µM
- TGI (UACC-257 melanoma): 21.7 µM
- GI50 (HT29 colon): 2.66 µM
- TGI (HT29 colon): 8.75 µM
- GI50 (SF-295 CNS): 1.86 µM
- TGI (SF-295 CNS): 3.78 µM
- GI50 (T-47D breast): 1.07 µM
- TGI (T-47D breast): 2.52 µM
- GI50 (EKVX NSCLC): 3 µM
- TGI (EKVX NSCLC): 11.2 µM
- GI50 (NCI-H226 lung): 2.03 µM
- TGI (NCI-H226 lung): 5.43 µM
- GI50 (SK-MEL-5 melanoma): 3.38 µM
- TGI (SK-MEL-5 melanoma): 12.1 µM
- GI50 (786-0 renal): 2.01 µM
- TGI (786-0 renal): 3.91 µM
- GI50 (SK-MEL-2 melanoma): 2.17 µM
- TGI (SK-MEL-2 melanoma): 4.78 µM
- GI50 (OVCAR-5 ovarian): 3.72 µM
- TGI (OVCAR-5 ovarian): 27.1 µM
- GI50 (HCT-15 colon): 18.6 µM
- TGI (HCT-15 colon): > 100 µM
- GI50 (HL-60(TB) leukemia): 2.54 µM
- TGI (HL-60(TB) leukemia): 6.73 µM
- GI50 (DU-145 prostate): 1.95 µM
- TGI (DU-145 prostate): 4.06 µM
- GI50 (OVCAR-4 ovarian): 1.99 µM
- TGI (OVCAR-4 ovarian): 4.26 µM
- GI50 (MOLT-4 leukemia): 1.34 µM
- TGI (MOLT-4 leukemia): 4.01 µM
- GI50 (A498 renal): 3.55 µM
- TGI (A498 renal): 17.9 µM
- GI50 (MDA-MB-435): 2.32 µM
- TGI (MDA-MB-435): 4.93 µM
- GI50 (M14 melanoma): 1.95 µM
- TGI (M14 melanoma): 4.14 µM
- GI50 (NCI-H23 lung): 1.53 µM
- TGI (NCI-H23 lung): 3.65 µM
- GI50 (UO-31 renal): > 100 µM
- TGI (UO-31 renal): > 100 µM
- GI50 (HOP-62 NSCLC): 1.69 µM
- TGI (HOP-62 NSCLC): 3.36 µM
- GI50 (RPMI-8226 leukemia): 17.2 µM
- TGI (RPMI-8226 leukemia): > 100 µM
- GI50 (SF-268 CNS): 2 µM
- TGI (SF-268 CNS): 4.6 µM
- GI50 (SW-620 colon): 1.82 µM
- TGI (SW-620 colon): 3.61 µM
- GI50 (HOP-92 NSCLC): 2.17 µM
- TGI (HOP-92 NSCLC): 6.63 µM
- GI50 (CAKI-1 renal): > 100 µM
- TGI (CAKI-1 renal): > 100 µM
- GI50 (NCI-H460 lung): 1.79 µM
- TGI (NCI-H460 lung): 3.53 µM
- GI50 (HS 578T breast): 1.86 µM
- TGI (HS 578T breast): 4.83 µM
- GI50 (A549 NSCLC): 2.22 µM
- TGI (A549 NSCLC): 7.41 µM
- GI50 (ACHN renal): 8.96 µM
- TGI (ACHN renal): > 100 µM
- GI50 (PC-3 prostate): 2.92 µM
- TGI (PC-3 prostate): > 100 µM
- GI50 (SN12C renal): 1.86 µM
- TGI (SN12C renal): 4.11 µM
- GI50 (KM12 colon): 22 µM
- TGI (KM12 colon): > 100 µM
- GI50 (MDA-MB-231 breast): 1.69 µM
- TGI (MDA-MB-231 breast): 3.18 µM
- GI50 (SNB-75 CNS): 2.11 µM
- TGI (SNB-75 CNS): 5.62 µM
- GI50 (LOX IMVI melanoma): 1.23 µM
- TGI (LOX IMVI melanoma): 2.51 µM

Reference: PubChem BioAssay (NCI)
